Reference: publication PMC12066977, “Alkyl Tail Variation on Chalcone‐Based Quaternary Pyridinium Salts as Rule‐of‐Thumb for Antimicrobial Activity” (Archiv Der Pharmazie, 2025)

Test system: E. coli
Test: Colistin association assay
Type: cell-based, Escherichia coli
Conditions: colistin at sub-inhibitory concentration (MIC/8 = 0.027 µM), versus compound alone
Description: This is a confirmation of the ability of these new QPySs to also affect Gram‐negative proliferation once they pass through the OM.
The dry powder of the chalcone‐based QPySs was resuspended in dimethylsulfoxide (DMSO) at 20 mM and used as stock solutions. For biological investigations, compounds were used in the range 100–0.78 µM, and the solvent in the corresponding percentage range. The following commercially available antimicrobials and toxic clinical drugs were purchased from Sigma‐Aldrich (St. Louis, MO, USA), dissolved in water, and used as reference controls. Gentamicin and ampicillin were used in the range 107.69–0.82 µM and 143.23–1.12 µM, respectively; the colistin was used at 0.03 µM in association with the chalcone‐based QASs with E. coli. The fluconazole was used in the assays with C. albicans in the range 3.27–0.03 µM. […]
In short, microbial inocula were prepared at 0.5 McFarland in PBS and, subsequently, bacterial suspensions were diluted 1:200 in Mueller–Hinton broth (Sigma‐Aldrich, St. Louis, MO, USA), while fungal inoculum was diluted 1:20 in RPMI‐1640 medium (Gibco®, ThermoFisher Scientific Inc., Waltham, MA, USA), containing glucose 2%, 0.3% levo‐glutamine buffered to pH 7.0 with 0.165 M 3‐(N‐morpholino) propanesulfonic acid (MOPS). […] The plate was incubated at 37°C for 24 h, and subsequently the optical density at 630 nm (OD630nm) was spectrophotometrically measured. […]

**Q.** With `C#CCOc1ccc(C(=O)/C=C/c2ccc[n+](CCCCCCCCCCCCCC)c2)c(OCC#C)c1.[Br-]` [Compound 6, (E)‐3‐{3‐[2,4‐Bis(prop‐2‐yn‐1‐yloxy)phenyl]‐3‐oxoprop‐1‐en‐1‐yl}‐1‐tetradecylpyridin‐1‐ium bromide] as the compound, how does the “MIC decrease for E. coli in association with colistin” value read?
**A.** The value was “fourfold”.
